System: retinal degeneration induced by transient retinal ischemia
Experiment: Suppressing effect on retinal degeneration in transient retinal ischemia
Format: in vivo, Wister male rats
Conditions: rat, 3 mg/kg into the caudal vein immediately before and after ocular hypertension treatment (IOP 130 mmHg, 50 minutes); 7 days after treatment; p<0.01 relative to control
Description: Wister male rats (body weight of about 200 g) were used. Each animal was subjected to sufficient warming treatment by using a thermal plate under anesthesia, and the head was fixed by using a stereotaxic apparatus. In order to induce transient retinal ischemia, IOP was maintained at 130 mmHg for 50 minutes by injecting intraocular irrigating solution into the anterior chamber via the cornea using an infusion tube and 30 G injection needle which were connected to a bottle held at 174 cm above the eyes (ocular hypertension treatment) according to the method of Akaike (Folia Pharmacologica Japonica, 111, pp. 97-104 (1998)). The ocular hypertension treatment was performed only on the right eye, and the left eye was left untreated. Immediately before and after the ocular hypertension treatment, a physiological saline solution or a dose of 3 mg/kg of MCI-186 was injected to the caudal vein. […] That is, a light-microscopic section of the retina was prepared 7 days after the ocular hypertension treatment, and the thickness of the retina was measured under microscope by using a micrometer (thickness from inner plexiform layer to inner nuclear layer). […] 7 days after the ocular hypertension treatment. Data represent means±SEM. As for the number of animals, the control group consisted of 10 rats, and the MCI-186 group consisted of 11 rats. […]

CC1=NN(c2ccccc2)C(=O)C1 [MCI-186, 3-methyl-1-phenyl-2-pyrazolin-5-one]
retinal degeneration induced by transient retinal ischemia (retinal thickness ratio, ocular hypertension treated eye/normal eye): significantly suppressed

— US7638516B2, “Agent for therapeutic treatment of optic nerve diseases and the like” (Mei Co., Ltd., priority 2000, dated 2009)
